Data from patent US20100248390A1, “COMPOSITIONS AND METHODS FOR IDENTIFYING LIGANDS OF ODORANT RECEPTORS” (DUKE UNIVERSITY, priority 2009, published 2010).

What was measured:
[1] = biological target: T1, mouse odorant receptors (ORs) (Mus musculus, UniProt Q9JHB2); test: CRE-luciferase assay of odorant receptor activation (Dual-Glo, Hana3A cells, RTP1S), dose-response EC50; format: cell-based; conditions: receptor MOR140-1
T1 construct: OR open reading frames were amplified from genomic DNA; expressed in transfected cells; host or cells: Hana3A cells, co-transfected with RTP1S, CRE-luciferase and pRL-SV40
T1 sequence (Q9JHB2 1-309): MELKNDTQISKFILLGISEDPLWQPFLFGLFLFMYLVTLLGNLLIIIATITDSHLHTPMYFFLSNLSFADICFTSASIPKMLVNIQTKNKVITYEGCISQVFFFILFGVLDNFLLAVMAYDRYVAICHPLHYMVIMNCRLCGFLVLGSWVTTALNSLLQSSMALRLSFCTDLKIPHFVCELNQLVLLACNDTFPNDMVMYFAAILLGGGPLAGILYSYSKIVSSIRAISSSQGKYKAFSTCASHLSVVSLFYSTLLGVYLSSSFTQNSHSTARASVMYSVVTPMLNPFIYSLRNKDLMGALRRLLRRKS

[2] = biological target: T2, mouse odorant receptors (ORs) (Mus musculus, UniProt Q8VGS3); test: as above; format: cell-based; conditions: receptor MOR180-1; read-out: log EC50 of odorant at MOR180-1 (0 = no response) (converted)
T2 construct: OR open reading frames were amplified from genomic DNA; expressed in transfected cells; host or cells: Hana3A cells, co-transfected with RTP1S, CRE-luciferase and pRL-SV40
T2 sequence (Q8VGS3 1-310): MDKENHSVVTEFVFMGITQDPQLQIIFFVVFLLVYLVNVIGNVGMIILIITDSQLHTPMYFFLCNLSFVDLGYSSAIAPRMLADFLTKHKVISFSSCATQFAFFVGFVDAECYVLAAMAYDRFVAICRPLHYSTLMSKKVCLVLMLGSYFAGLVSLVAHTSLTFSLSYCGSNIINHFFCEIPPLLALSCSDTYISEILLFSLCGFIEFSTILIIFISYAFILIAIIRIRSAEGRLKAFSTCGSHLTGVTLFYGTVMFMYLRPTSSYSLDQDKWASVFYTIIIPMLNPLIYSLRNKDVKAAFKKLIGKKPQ

| log EC50 (Table 4 value), MOR140-1 [1] | EC50 [2] | Structure (SMILES) |
| --- | --- | --- |
| −3.614 | – | CCCCCC1=C(C)CCC1=O [Dihydroiasmone] |
| – | 661 µM | CC(=O)Oc1ccccc1 [Phenyl acetate] |
